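Interpolation was linear, between the two tested concentrations surrounding the appropriate level; five concentrations were tested over 48 hours in 96-well plates. The concentration for 50% growth inhibition is given as GI50. The concentration for full growth arrest is given as TGI.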
Tests used:
Assay in all cases: NCI-60 cell line screen, 48 h
[1] = test system: 786-0 renal
[2] = test system: A498 renal
[3] = test system: A549 NSCLC
[4] = test system: ACHN renal
[5] = test system: CAKI-1 renal
[6] = test system: CCRF-CEM leukemia
[7] = test system: COLO 205 colon
[8] = test system: DLD-1 colon
[9] = test system: DMS 114 small cell lung
[10] = test system: EKVX NSCLC
[11] = test system: HCC-2998 colon
[12] = test system: HCT-116 colon
[13] = test system: HCT-15 colon
[14] = test system: HL-60(TB) leukemia
[15] = test system: HOP-18 NSCLC
[16] = test system: HOP-62 NSCLC
[17] = test system: HOP-92 NSCLC
[18] = test system: HT29 colon
[19] = test system: IGROV1 ovarian
[20] = test system: K-562 leukemia
[21] = test system: KM12 colon
[22] = test system: KM20L2 colon
[23] = test system: LOX IMVI melanoma
[24] = test system: LXFL 529 NSCLC
[25] = test system: M14 melanoma
[26] = test system: M19-MEL melanoma
[27] = test system: MALME-3M melanoma
[28] = test system: MOLT-4 leukemia
[29] = test system: NCI-H226 lung
[30] = test system: NCI-H23 lung
[31] = test system: NCI-H460 lung
[32] = test system: OVCAR-3 ovarian
[33] = test system: OVCAR-4 ovarian
[34] = test system: OVCAR-5 ovarian
[35] = test system: OVCAR-8 ovarian
[36] = test system: RPMI-8226 leukemia
[37] = test system: SF-295 CNS
[38] = test system: SF-539 CNS
[39] = test system: SK-MEL-2 melanoma
[40] = test system: SK-MEL-5 melanoma
[41] = test system: SK-OV-3 ovarian
[42] = test system: SN12C renal
[43] = test system: SNB-19 CNS
[44] = test system: SNB-75 CNS
[45] = test system: SNB-78 CNS
[46] = test system: SW-620 colon
[47] = test system: TK-10 renal
[48] = test system: U251 CNS
[49] = test system: UACC-257 melanoma
[50] = test system: UACC-62 melanoma
[51] = test system: UO-31 renal
[52] = test system: XF 498 CNS

How did the GI50 [1] turn out when `O=C(N/N=C/c1cc(Cl)cc(Cl)c1[O-])c1ccccc1.O=C(N/N=C/c1cc(Cl)cc(Cl)c1[O-])c1ccccc1.[Co+2]` was run?
The GI50 was 10.4 µM.

And the TGI [1]?
The TGI was over 100 µM.

What about the GI50 [2] of the same molecule?
Its GI50 is 34.4 µM.

What about the TGI [2] of the same molecule?
Its TGI is over 100 µM.

What about the GI50 [3] of the same molecule?
Its GI50 is 28.8 µM.

What about the TGI [3] of the same molecule?
The TGI was over 100 µM.

And the GI50 [4]?
The GI50 was 16.7 µM.

And the TGI [4]?
Its TGI is over 100 µM.

And the GI50 [5]?
The GI50 was 21.7 µM.

And the TGI [5]?
The TGI was over 100 µM.

What about the GI50 [6] of the same molecule?
The GI50 was 3.43 µM.

What about the TGI [6] of the same molecule?
The TGI was 19.6 µM.

What about the GI50 [7] of the same molecule?
The GI50 was 42.1 µM.

And the TGI [7]?
Its TGI is over 100 µM.

And the GI50 [8]?
Its GI50 is 14.7 µM.

And the TGI [8]?
Its TGI is over 100 µM.

And the GI50 [9]?
The GI50 was 10.6 µM.

And the TGI [9]?
Its TGI is 67.9 µM.

And the GI50 [10]?
Its GI50 is 10.3 µM.

What about the TGI [10] of the same molecule?
Its TGI is over 100 µM.

And the GI50 [11]?
The GI50 was 40.7 µM.

And the TGI [11]?
Its TGI is over 100 µM.

What about the GI50 [12] of the same molecule?
The GI50 was 14.6 µM.

What about the TGI [12] of the same molecule?
The TGI was over 100 µM.

And the GI50 [13]?
The GI50 was 7.22 µM.

What about the TGI [13] of the same molecule?
The TGI was over 100 µM.

And the GI50 [14]?
The GI50 was 2.62 µM.

What about the TGI [14] of the same molecule?
The TGI was 8.89 µM.

What about the GI50 [15] of the same molecule?
The GI50 was 9.34 µM.

And the TGI [15]?
Its TGI is over 100 µM.

And the GI50 [16]?
The GI50 was 24.8 µM.

And the TGI [16]?
Its TGI is over 100 µM.

What about the GI50 [17] of the same molecule?
The GI50 was 5.71 µM.

And the TGI [17]?
The TGI was 46.9 µM.

And the GI50 [18]?
The GI50 was 49.5 µM.

What about the TGI [18] of the same molecule?
Its TGI is over 100 µM.

And the GI50 [19]?
Its GI50 is 27.8 µM.

What about the TGI [19] of the same molecule?
The TGI was over 100 µM.

What about the GI50 [20] of the same molecule?
Its GI50 is 15.6 µM.

And the TGI [20]?
Its TGI is 76.7 µM.

What about the GI50 [21] of the same molecule?
Its GI50 is 27.3 µM.

And the TGI [21]?
The TGI was over 100 µM.

What about the GI50 [22] of the same molecule?
Its GI50 is 47.8 µM.

And the TGI [22]?
Its TGI is over 100 µM.

And the GI50 [23]?
The GI50 was 9.19 µM.

What about the TGI [23] of the same molecule?
The TGI was over 100 µM.

And the GI50 [24]?
Its GI50 is 7.38 µM.

And the TGI [24]?
The TGI was over 100 µM.

What about the GI50 [25] of the same molecule?
The GI50 was 17.8 µM.

And the TGI [25]?
The TGI was 78.3 µM.

And the GI50 [26]?
The GI50 was 20.5 µM.

What about the TGI [26] of the same molecule?
The TGI was over 100 µM.

What about the GI50 [27] of the same molecule?
The GI50 was 33 µM.

And the TGI [27]?
Its TGI is over 100 µM.

And the GI50 [28]?
The GI50 was 4.43 µM.

What about the TGI [28] of the same molecule?
Its TGI is 21.4 µM.

What about the GI50 [29] of the same molecule?
The GI50 was 26.5 µM.

And the TGI [29]?
Its TGI is 92.2 µM.

And the GI50 [30]?
Its GI50 is 21 µM.

And the TGI [30]?
Its TGI is over 100 µM.

What about the GI50 [31] of the same molecule?
The GI50 was 16.7 µM.

What about the TGI [31] of the same molecule?
Its TGI is over 100 µM.

And the GI50 [32]?
The GI50 was 3.18 µM.

And the TGI [32]?
The TGI was over 100 µM.

And the GI50 [33]?
The GI50 was 16.1 µM.

And the TGI [33]?
Its TGI is over 100 µM.

What about the GI50 [34] of the same molecule?
The GI50 was 46.5 µM.

And the TGI [34]?
The TGI was over 100 µM.

And the GI50 [35]?
The GI50 was 21.1 µM.

What about the TGI [35] of the same molecule?
The TGI was over 100 µM.

What about the GI50 [36] of the same molecule?
Its GI50 is 13.4 µM.

And the TGI [36]?
The TGI was over 100 µM.

And the GI50 [37]?
Its GI50 is 20.8 µM.

And the TGI [37]?
The TGI was 97.6 µM.

What about the GI50 [38] of the same molecule?
The GI50 was 20.5 µM.

And the TGI [38]?
Its TGI is 93 µM.

And the GI50 [39]?
Its GI50 is 26.5 µM.

And the TGI [39]?
The TGI was over 100 µM.

And the GI50 [40]?
Its GI50 is 29 µM.

And the TGI [40]?
The TGI was over 100 µM.

What about the GI50 [41] of the same molecule?
The GI50 was 40.9 µM.

And the TGI [41]?
The TGI was over 100 µM.

And the GI50 [42]?
The GI50 was 14.8 µM.

What about the TGI [42] of the same molecule?
The TGI was over 100 µM.

What about the GI50 [43] of the same molecule?
Its GI50 is 45 µM.

What about the TGI [43] of the same molecule?
The TGI was over 100 µM.

What about the GI50 [44] of the same molecule?
Its GI50 is 25.3 µM.

What about the TGI [44] of the same molecule?
Its TGI is over 100 µM.

What about the GI50 [45] of the same molecule?
The GI50 was 53.2 µM.

What about the TGI [45] of the same molecule?
Its TGI is over 100 µM.

What about the GI50 [46] of the same molecule?
Its GI50 is 24.9 µM.

What about the TGI [46] of the same molecule?
The TGI was over 100 µM.

What about the GI50 [47] of the same molecule?
Its GI50 is 41 µM.

And the TGI [47]?
The TGI was over 100 µM.

And the GI50 [48]?
Its GI50 is 33.5 µM.

What about the TGI [48] of the same molecule?
Its TGI is over 100 µM.

And the GI50 [49]?
The GI50 was 19.6 µM.

What about the TGI [49] of the same molecule?
Its TGI is 76.3 µM.

What about the GI50 [50] of the same molecule?
Its GI50 is 12.2 µM.

And the TGI [50]?
The TGI was 51.6 µM.

What about the GI50 [51] of the same molecule?
Its GI50 is 16.8 µM.

And the TGI [51]?
Its TGI is 73.3 µM.

And the GI50 [52]?
The GI50 was 12.4 µM.

And the TGI [52]?
Its TGI is over 100 µM.

— PubChem BioAssay (NCI)
